Test results: patent US8648066B2 (Exelixis, Inc., priority 2009, dated 2014)

The compounds below were run against mTOR/GbL/Raptor (mTORC1) (Homo sapiens, UniProt P42345) (assay: mTOR/GbL/Raptor (mTORC1) ELISA assay). Conditions: phosphorylation of 4E-BP1; 0.2 nM mTORC1, 10 μM ATP; read-out: IC50 in this assay (mTORC1 ELISA).
Assay type: biochemical
Method: The measurement of mTORC1 enzyme activity was performed in an ELISA assay format following the phosphorylation of 4E-BP1 protein. All experiments were performed in the 384-well format. Generally, 0.5 μL DMSO containing varying concentrations of the test Compound was mixed with 15 μL enzyme solution. Kinase reactions were initiated with the addition of 15 μL of substrates-containing solution. The assay conditions were as follows; 0.2 nM mTORC1, 10 μM ATP and 50 nM NHis-tagged 4E-BP1 in 20 mM Hepes, pH 7.2, 1 mM DTT, 50 mM NaCl, 10 mM MnCl2, 0.02 mg/mL BSA, 0.01% CHAPS, 50 mM β-glycerophosphate. Following an incubation of 120 minutes at ambient temperature, 20 μL of the reaction volume was transferred to a Ni-Chelate-coated 384-well plate. The binding step of the 4E-BP1 protein proceeded for 60 minutes, followed by washing 4 times each with 50 μL of Tris-buffered saline solution (TBS). Anti-phospho-4E-BP1 rabbit-IgG (20 μL, 1:5000) in 5% BSA-TBST (0.2% Tween-20 in TBS) was added and further incubated for 60 minutes. Incubation with a secondary HRP-tagged anti-IgG was similarly performed after washing off the primary antibody (4 washes of 50 μL). Following the final wash step with TBST, 20 μL of SuperSignal ELISA Femto (Pierce Biotechnology) was added and the luminescence measured using an EnVision plate reader.

First: COc1cc2c(N3CCOc4ccc(-c5ccc6nc(C)[nH]c6c5)cc4C3)ncnc2c(OC)c1OC [Example 57, 7-(2-methyl-1H-benzimidazol-6-yl)-4-[6,7,8-tris(methyloxy)quinazolin-4-tris(methyloxy)quinazolin-4-yl]-2,3,4,5-tetrahydro-1,4-benzoxazepine]
Second: Cc1nc2ccc(-c3ccc4c(c3)CN(c3ncnc(C(C)C)c3C)CCO4)cc2[nH]1 [Example 62, 7-(2-methyl-1H-benzimidazol-6-yl)-4-[5-methyl-6-(1-methylethyl)pyrimidin-4-yl]-2,3,4,5-tetrahydro-1,4-benzoxazepine]
The IC50 of the first is higher: ≥ 2000 nM for the first, 250 to 1000 nM for the second. The second is the more potent here.

`CCc1ncnc(N2CCOc3ccc(-c4ccc5nc(C)[nH]c5c4)cc3C2)c1CC` [Example 58, 4-(5,6-diethylpyrimidin-4-yl)-7-(2-methyl-1H-benzimidazol-6-yl)-2,3,4,5-tetrahydro-1,4-benzoxazepine] and `CCc1c(C)ncnc1N1CCOc2ccc(-c3ccc4nc(C)[nH]c4c3)cc2C1` [Example 64, 4-(5-ethyl-6-methylpyrimidin-4-yl)-7-(2-methyl-1H-benzimidazol-6-yl)-2,3,4,5-tetrahydro-1,4-benzoxazepine] fall in the same range of IC50: 50 to 250 nM for the first, 50 to 250 nM for the second.

First: Cc1nc2ccc(-c3ccc4c(c3)CN(c3cc(C(C)C)ncn3)CCO4)cc2[nH]1 [Example 59, 7-(2-methyl-1H-benzimidazol-6-yl)-4-[6-(1-methylethyl)pyrimidin-4-yl]-2,3,4,5-tetrahydro-1,4-benzoxazepine]
Second: Cc1nc2ccc(-c3ccc4c(c3)CN(c3ncnc(C)c3C(C)C)CCO4)cc2[nH]1 [Example 66, 7-(2-methyl-1H-benzimidazol-6-yl)-4-[6-methyl-5-(1-methylethyl)pyrimidin-4-yl]-2,3,4,5-tetrahydro-1,4-benzoxazepine]
The IC50 of the first is higher: 50 to 250 nM for the first, ≤ 10 nM for the second.

First: Cc1nc2ccc(-c3ccc4c(c3)CN(c3ncnc5c3CCN(Cc3ccccc3)C5)CCO4)cc2[nH]1 [Example 60, 7-(2-methyl-1H-benzimidazol-6-yl)-4-[7-(phenylmethyl)-5,6,7,8-tetrahydropyrido[3,4-d]pyrimidin-4-yl]-2,3,4,5-tetrahydro-1,4-benzoxazepine]
Second: CCc1ncnc(N2CCOc3ccc(-c4ccc5nc(C)[nH]c5c4)cc3C2)c1Cc1ccccc1 [Example 70, 4-[6-ethyl-5-(phenylmethyl)pyrimidin-4-yl]-7-(2-methyl-1H-benzimidazol-6-yl)-2,3,4,5-tetrahydro-1,4-benzoxazepine]
The IC50 of the first is higher: 50 to 250 nM for the first, ≤ 10 nM for the second. The second is the more potent here.

`CCc1c(C(C)C)ncnc1N1CCOc2ccc(-c3ccc4nc(C)[nH]c4c3)cc2C1` [Example 61, 4-[5-ethyl-6-(1-methylethyl)pyrimidin-4-yl]-7-(2-methyl-1H-benzimidazol-6-yl)-2,3,4,5-tetrahydro-1,4-benzoxazepine] and `Cc1nc2ccc(-c3ccc4c(c3)CN(c3ncnc(C)c3CC3CC3)CCO4)cc2[nH]1` [Example 69, 4-[5-(cyclopropylmethyl)-6-methylpyrimidin-4-yl]-7-(2-methyl-1H-benzimidazol-6-yl)-2,3,4,5-tetrahydro-1,4-benzoxazepine] fall in the same range of IC50: 50 to 250 nM for the first, 50 to 250 nM for the second.

`Cc1nc2ccc(-c3ccc4c(c3)CN(c3ncnc5c3CCC(C)C5)CCO4)cc2[nH]1` (centres unmarked) [Example 63, 7-(2-methyl-1H-benzimidazol-6-yl)-4-(7-methyl-5,6,7,8-tetrahydroquinazolin-4-yl)-2,3,4,5-tetrahydro-1,4-benzoxazepine] and `Cc1nc2ccc(-c3ccc4c(c3)CN(c3ncnc5c3CC(C)C5)CCO4)cc2[nH]1` (centres unmarked) [Example 76, 7-(2-methyl-1H-benzimidazol-6-yl)-4-(6-methyl-6,7-dihydro-5H-cyclopenta[d]pyrimidin-4-yl)-2,3,4,5-tetrahydro-1,4-benzoxazepine] fall in the same range of IC50: 50 to 250 nM for the first, 50 to 250 nM for the second.

`Cc1nc2ccc(-c3ccc4c(c3)CN(c3ncnc5c3CC(C)(C)CC5)CCO4)cc2[nH]1` [Example 65, 4-(6,6-dimethyl-5,6,7,8-tetrahydroquinazolin-4-yl)-7-(2-methyl-1H-benzimidazol-6-yl)-2,3,4,5-tetrahydro-1,4-benzoxazepine] and `CCC1CCc2ncnc(N3CCOc4ccc(-c5ccc6nc(C)[nH]c6c5)cc4C3)c2C1` (centres unmarked) [Example 68, 4-(6-ethyl-5,6,7,8-tetrahydroquinazolin-4-yl)-7-(2-methyl-1H-benzimidazol-6-yl)-2,3,4,5-tetrahydro-1,4-benzoxazepine] cannot be ordered by IC50: ≤ 10 nM for the first, 10 to 50 nM for the second.

`Cc1nc2ccc(-c3ccc4c(c3)CN(c3ncnc(C)c3Cc3cccc(F)c3)CCO4)cc2[nH]1` [Example 72, 4-{5-[(3-fluorophenyl)methyl]-6-methylpyrimidin-4-yl}-7-(2-methyl-1H-benzimidazol-6-yl)-2,3,4,5-tetrahydro-1,4-benzoxazepine] and `Cc1nc2ccc(-c3ccc4c(c3)CN(c3ncnc(C)c3Cc3cccc(Cl)c3)CCO4)cc2[nH]1` [Example 73, 4-{5-[(3-chlorophenyl)methyl]-6-methylpyrimidin-4-yl}-7-(2-methyl-1H-benzimidazol-6-yl)-2,3,4,5-tetrahydro-1,4-benzoxazepine] cannot be ordered by IC50: ≤ 10 nM for the first, ≤ 10 nM for the second.

First: Cc1nc2ccc(-c3ccc4c(c3)CN(c3ncnc(C)c3C(C)c3ccccc3)CCO4)cc2[nH]1 (centres unmarked) [Example 74]
Second: Cc1nc2ccc(-c3ccc4c(c3)CN(c3ncnc(Nc5ccccc5)c3C)CCO4)cc2[nH]1 [Example 77, 5-methyl-6-[7-(2-methyl-1H-benzimidazol-6-yl)-2,3-dihydro-1,4-benzoxazepine-4(5H)-yl]-N-phenylpyrimidin-4-amine]
The IC50 of the first is lower: ≤ 10 nM for the first, 1000 to 2000 nM for the second.

`Cc1ccc(Cc2c(C)ncnc2N2CCOc3ccc(-c4ccc5nc(C)[nH]c5c4)cc3C2)cc1` [Example 78, 7-(2-methyl-1H-benzimidazol-6-yl)-4-{6-methyl-5-[(4-methylphenyl)methyl]pyrimidin-4-yl}-2,3,4,5-tetrahydro-1,4-benzoxazepine] and `Cc1nc2ccc(-c3ccc4c(c3)CN(c3ncnc(C)c3Cc3ccc(F)cc3)CCO4)cc2[nH]1` [Example 79, 4-{5-[(4-fluorophenyl)methyl]-6-methylpyrimidin-4-yl}-7-(2-methyl-1H-benzimidazol-6-yl)-2,3,4,5-tetrahydro-1,4-benzoxazepine] cannot be ordered by IC50: ≤ 10 nM for the first, ≤ 10 nM for the second.

`Cc1nc2ccc(-c3ccc4c(c3)CN(c3ncnc(C)c3Cc3ccc(Cl)cc3)CCO4)cc2[nH]1` [Example 80, 4-{5-[(4-chlorophenyl)methyl]-6-methylpyrimidin-4-yl}-7-(2-methyl-1H-benzimidazol-6-yl)-2,3,4,5-tetrahydro-1,4-benzoxazepine] and `Cc1nc2ccc(-c3ccc4c(c3)CN(c3ncnc(C)c3Cc3ccc(F)c(F)c3)CCO4)cc2[nH]1` [Example 89, 4-{5-[(3,4-difluorophenyl)methyl]-6-methylpyrimidin-4-yl}-7-(2-methyl-1H-benzimidazol-6-yl)-2,3,4,5-tetrahydro-1,4-benzoxazepine] cannot be ordered by IC50: ≤ 10 nM for the first, ≤ 10 nM for the second.

`COc1cccc(Cc2c(C)ncnc2N2CCOc3ccc(-c4ccc5nc(C)[nH]c5c4)cc3C2)c1` [Example 81, 7-(2-methyl-1H-benzimidazol-6-yl)-4-(6-methyl-5-{[3-(methyloxy)phenyl]methyl}pyrimidin-4-yl)-2,3,4,5-tetrahydro-1,4-benzoxazepine] and `Cc1cccc(Cc2c(C)ncnc2N2CCOc3ccc(-c4ccc5nc(C)[nH]c5c4)cc3C2)c1` [Example 82, 7-(2-methyl-1H-benzimidazol-6-yl)-4-{6-methyl-5-[(3-methylphenyl)methyl]pyrimidin-4-yl}-2,3,4,5-tetrahydro-1,4-benzoxazepine] fall in the same range of IC50: 10 to 50 nM for the first, 10 to 50 nM for the second.

`Cc1nc2ccc(-c3ccc4c(c3)CN(c3ncnc(C)c3Cc3cc(F)cc(Cl)c3)CCO4)cc2[nH]1` [Example 83, 4-{5-[(3-chloro-5-fluorophenyl)methyl]-6-methylpyrimidin-4-yl}-7-(2-methyl-1H-benzimidazol-6-yl)-2,3,4,5-tetrahydro-1,4-benzoxazepine] and `Cc1nc2ccc(-c3ccc4c(c3)CN(c3ncnc(C)c3Cc3cc(F)cc(F)c3)CCO4)cc2[nH]1` [Example 91, 4-(5-[(3,5-difluorophenyl)methyl]-6-methylpyrimidin-4-yl}-7-(2-methyl-1H-benzimidazol-6-yl)-2,3,4,5-tetrahydro-1,4-benzoxazepine] cannot be ordered by IC50: ≤ 10 nM for the first, 10 to 50 nM for the second.

`COc1ccccc1Cc1c(C)ncnc1N1CCOc2ccc(-c3ccc4nc(C)[nH]c4c3)cc2C1` [Example 84, 7-(2-methyl-1H-benzimidazol-6-yl)-4-(6-methyl-5-{[2-(methyloxy)phenyl]methyl}pyrimidin-4-yl)-2,3,4,5-tetrahydro-1,4-benzoxazepine] and `Cc1nc2ccc(-c3ccc4c(c3)CN(c3ncnc(C)c3Cc3ccccc3C)CCO4)cc2[nH]1` [Example 86, 7-(2-methyl-1H-benzimidazol-6-yl)-4-{6-methyl-5-[(2-methylphenyl)methyl]pyrimidin-4-yl}-2,3,4,5-tetrahydro-1,4-benzoxazepine] fall in the same range of IC50: 10 to 50 nM for the first, 10 to 50 nM for the second.

In the case of `Cc1nc2ccc(-c3ccc4c(c3)CN(c3ncnc(C)c3Cc3ccc(C(F)(F)F)cc3)CCO4)cc2[nH]1` [Example 90, 7-(2-methyl-1H-benzimidazol-6-yl)-4-(6-methyl-5-{[4-(trifluoromethyl)phenyl]methyl}pyrimidin-4-yl)-2,3,4,5-tetrahydro-1,4-benzoxazepine], the IC50 is reported as 10 to 50 nM.
